pIC50: −log10 of the molar value.
Experiments:
[1] = Cell growth inhibition assay (cell toxicity, tetrazolium dye uptake); type: cell-based; details: monkey; Vero cells; 50% inhibition of cell viability at 96 hours; read-out: CCID50 at 96 hr.
Protocol: Cell toxicity is assessed in a cell growth inhibition assay. Subconfluent cultures of Vero cells grown on 96-well microtiter dishes are exposed to different dilutions of drug, and cell viability determined daily on replicate cultures using uptake of a tetrazolium dye (MIT). The concentration required for a 50% inhibition of cell viability at 96 hours is termed CCID50.

[2] = test system: Varicella zoster virus (VZV); test: VZV plaque reduction assay in MRC5 cells (without agarose overlay); type: cell-based
Protocol: (§1) Human cytomegalovirus (HCMV) is assayed in monolayers of either MRC5 cells (human embryonic lung) or Detroit 532 cells (human foreskin fibroblasts) in multiwell trays. Activity of compounds is determined in the plaque reduction assay, in which a cell monolayer is infected with a suspension of HCMV, and then overlaid with nutrient agarose in the form of a gel to ensure that there is no spread of virus throughout the culture. A range of concentrations of compound of known molarity was incorporated in the nutrient agarose overlay. Plaque numbers of each concentration are expressed as percentage of the control and dose-response curve is drawn. From this curve the 50% inhibitory concentration (IC50) is estimated. Varicella zoster virus (VZV) is assayed in MRC5 cells by a similar method of that of MCMV with the omission of the agarose overlay.

[3] = test system: Human cytomegalovirus (HCMV); test: HCMV plaque reduction assay in MRC5 or Detroit 532 cells; type: cell-based
Protocol: as §1, with “estimated.” for “estimated. Varicella zoster virus (VZV) is assayed in MRC5 cells by a similar method of that of MCMV with the omission of the agarose overlay.”

[4] = test system: vaccinia and herpes simplex; details: in vitro, literature; cited from earlier work

## C#Cc1cn([C@H]2C[C@H](OC(C)=O)[C@@H](COC(C)=O)O2)c(=O)nc1N [Example 2, 2'-Deoxy-3',5'-di-O-acetyl-5-ethynylcytidine]
[1]
  CC50 at 96 h: > 500 µM

## CC#Cc1cn([C@H]2C[C@H](O)[C@@H](CO)O2)c(=O)[nH]c1=O [Example 1, 2'-Deoxy-5-propynyluridine]
[2]; Human alphaherpesvirus 3, MRC5, MRC5 cells, plaque reduction
  pIC50: 6.00
[2]; qualitative statement
  activity against VZV (in words): potent anti-VZV activity
[3]; Human betaherpesvirus 5, MRC5, MRC5 or Detroit 532 cells, plaque reduction
  pIC50: < 4.80
[1]
  CC50 at 96 h: > 500 µM

## C#Cc1cn([C@H]2C[C@H](O)[C@@H](CO)O2)c(=O)nc1N [Example 3, 2'-Deoxy-5-ethynylcytidine]
[3]; qualitative statement
  activity against CMV (in words): high activity against CMV

## C#Cc1cn([C@H]2C[C@H](O)[C@@H](CO)O2)c(=O)[nH]c1=O [2'-deoxy-5-ethynyluridine]
[4]
  antiviral activity against vaccinia and herpes simplex (in words): did not demonstrate any effect of use in human medicinal chemotherapy
